What was measured:
Fyn-SH3-SH2 = details: 100 V/cm for Ld of 30 cm; 100 and 200 V/cm for Ld of 40 cm; t1/2 not measured
GST-Fyn-SH3-SH2 [1] = assay: NECEEM, GST-Fyn-SH3-SH2:Fluor-Fyn peptide complex; assay type: binding; details: 2 μM GST-Fyn-SH3-SH2, 100 nM Fluor-Fyn peptide, pH 8.5
GST-Fyn-SH3-SH2 [2] = assay: High-speed CE competition / binding, GST-Fyn-SH3-SH2 with Fluor-Fyn peptide

## fluorescein-EEEEPQpYEEIPIYL [Fluor-Fyn peptide]
Fyn-SH3-SH2
  dissociation of the complex at low electric field (NECEEM): complete dissociation of the complex
GST-Fyn-SH3-SH2 [1]
  complexes observed (NECEEM): two incompletely resolved peaks
GST-Fyn-SH3-SH2 [2]; 500 nM protein, 200 nM Fluor-Fyn peptide
  number of complexes detected (high-speed CE), GST-Fyn-SH2-SH3: two distinct complexes were detected
GST-Fyn-SH3-SH2 [2]; Fluor-Fyn peptide 50 nM to 700 nM, protein 500 nM
  complex 1-to-complex 2 ratio with increasing peptide concentration: decreases with increasing peptide concentration
GST-Fyn-SH3-SH2 [2]; GST-Fyn-SH3-SH2 0.1 μM to 0.5 μM, Fluor-Fyn peptide 200 nM
  protein concentration dependency of complex formation: low range: complex 2 increases
GST-Fyn-SH3-SH2 [2]; for t1/2 of 22 s and separation time of 3.8 s
  complex expected to dissociate over the course of separation: 2%
